Results taken from patent publication US8772500B2, “TRPV3 modulators” (AbbVie Inc., priority 2011, dated 2014).

What was measured:
human TRPV3 = target: T1, human TRPV3 (Homo sapiens, UniProt Q8NET8); experiment: In vitro antagonism of recombinant human TRPV3 activation (FLIPR Tetra calcium assay, 2-APB as agonist); assay type: cell-based; conditions: HEK293 cells stably expressing human TRPV3; 2-APB 80 μM; range class; read-out: IC50 (reported range)
T1 construct: expressed in transfected cells
T1 sequence (Q8NET8 1-790): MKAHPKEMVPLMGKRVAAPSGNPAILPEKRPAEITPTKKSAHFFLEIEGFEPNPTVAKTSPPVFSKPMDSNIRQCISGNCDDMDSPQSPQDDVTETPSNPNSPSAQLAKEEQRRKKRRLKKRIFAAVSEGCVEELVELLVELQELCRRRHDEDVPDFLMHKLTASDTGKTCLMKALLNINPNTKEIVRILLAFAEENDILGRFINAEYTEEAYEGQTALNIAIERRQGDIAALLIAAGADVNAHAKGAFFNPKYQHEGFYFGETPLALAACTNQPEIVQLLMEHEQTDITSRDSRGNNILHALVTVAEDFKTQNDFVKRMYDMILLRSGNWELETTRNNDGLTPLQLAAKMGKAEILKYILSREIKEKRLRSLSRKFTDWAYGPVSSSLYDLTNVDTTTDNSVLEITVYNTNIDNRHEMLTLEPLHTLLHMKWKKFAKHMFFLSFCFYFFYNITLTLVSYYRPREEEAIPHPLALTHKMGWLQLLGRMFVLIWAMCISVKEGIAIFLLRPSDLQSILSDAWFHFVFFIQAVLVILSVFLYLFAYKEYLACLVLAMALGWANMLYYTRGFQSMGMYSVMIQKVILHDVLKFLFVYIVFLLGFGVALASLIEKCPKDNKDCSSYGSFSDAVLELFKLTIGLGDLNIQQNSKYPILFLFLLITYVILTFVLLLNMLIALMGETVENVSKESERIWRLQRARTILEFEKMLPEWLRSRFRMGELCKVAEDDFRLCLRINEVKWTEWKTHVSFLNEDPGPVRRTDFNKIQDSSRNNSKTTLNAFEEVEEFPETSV
Method: Test compounds were evaluated for ability to antagonize the activation of recombinant human TRPV3 using FLIPR® Tetra cellular screening. Specifically, on the day prior to the experiment recombinant HEK293 cells that stably express human TRPV3 were removed from tissue culture flasks and plated in growth medium at 20,000 cells/well into Poly-d-lysine coated black/clear 384-well Plate (Corning, 3845) using a Multidrop® dispenser (ThermoScientific, Waltham, Mass.). Prior to the start of the assay, the medium was removed by aspiration, and cells were loaded with 30 μL no-wash FLIPR® Calcium-4 dye (λEX=470-495 nm, λEM=515-575 nm; Molecular Devices, Sunnyvale, Calif.). The cells were then incubated for 90-120 minutes in the dark prior to addition of the test compound.
A double-addition protocol was used. The test compound (i.e., the TRPV3 antagonist) was added at the 10 second time point, followed by the addition of a TRPV3 agonist three minutes later. Each test compound evaluated was first dissolved in DMSO to prepare a 10 mM stock solution. A solution (5×) of the test compound was then prepared in DPBS (Dulbecco's Phosphate Buffered Saline) and 10 μL of that solution was added to the cells at a delivery rate of 40 μL/sec. The TRPV3 agonist used to activate human TRPV3 expressed by the […] was 2-aminoethoxy-diphenyl borate (2-APB; Tocris Cookson, Ellisville, Mo.) at 80 μM. Final assay volume was 50 μL. Total length of an experimental run was 10 minutes.
Changes in fluorescence were measured over time using the FLIPR® instrument. The intensity of the fluorescence was captured and digitally transferred to an interfaced computer. The maximum response minus minimum response was calculated and expressed as the percentage of the maximum 2-APB response in the absence of antagonist. The concentration of 2-APB corresponds to its EC80.
Table 1 reports the IC50 values measured for the test compounds as human TRPV3 antagonists. […] Actual measured values are shown parenthetically after the reported range. In most cases, the values reported are average values from at least two runs (i.e., n≧2).

[1] = In vitro human microsomal stability assay; assay type: in vitro ADME; conditions: for HUMAN MICROSOMAL STABILITY (% REMAINING AFTER 30 MINUTES): 0.5 h, 0.5 μM, pH 7.4
In short: (§1)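 Incubations ran at 37 °C in NADPH-supplemented rat (Sprague-Dawley) or human hepatic microsomes.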

[2] = In vitro rat microsomal stability assay; assay type: in vitro ADME, rat (Sprague-Dawley); conditions: Sprague-Dawley, rat, 0.5 h, 0.5 μM, pH 7.4
In short: as §1

SMILES | IC50 (human TRPV3) | HUMAN MICROSOMAL STABILITY (% REMAINING AFTER 30 MINUTES) [1] | RAT MICROSOMAL STABILITY (% REMAINING AFTER 30 MINUTES) [2] | HUMAN […] (% REMAINING AFTER 30 MINUTES) ([1]; 0.5 μM substrate, 0.25 mg/mL microsomal protein, pH 7.4, 37° C., NADPH, 30 minutes)
OC(CC1(c2ccc(C(F)(F)F)cc2)CCC1)c1ccccn1 (stereo not shown) [Example 75, 1-(pyridin-2-yl)-2-{1-[4-(trifluoromethyl)phenyl]cyclobutyl}ethanol] | 501 to 1000 nM | 44% | 0.74% | 
OC(c1ccccn1)C1(c2ccc(C(F)(F)F)c(F)c2)CCC1 (stereo not shown) [Example 17] | 1100 to 5000 nM | 21% | 13% | 
CN1CC(c2ccc(C(F)(F)F)cc2)(C(O)c2ccccn2)C1 (stereo not shown) [Example 155, {1-methyl-3-[4-(trifluoromethyl)phenyl]azetidin-3-yl}(pyridin-2-yl)methanol] | 5100 to 20000 nM | >85% | 76% | 
Cc1ccc(C2(C(O)c3ccccn3)CCC2)cc1 (stereo not shown) [Example 9, [1-(4-methylphenyl)cyclobutyl](pyridin-2-yl)methanol] | 1100 to 5000 nM | 0.12% | 0.18% | 
Cc1cccc(C2(C(O)c3ccccn3)CCC2)c1 (stereo not shown) [Example 8, [1-(3-methylphenyl)cyclobutyl](pyridin-2-yl)methanol] | 50 to 500 nM | 0.13% | 0.73% | 
OC(c1ncccn1)C1(c2ccc(Cl)c(Cl)c2)CCC1 (stereo not shown) [Example 38, [1-(3,4-dichlorophenyl)cyclobutyl](pyrimidin-2-yl)methanol] | 50 to 500 nM |  | 9.5% | 
O[C@@H](c1ccccn1)C1(c2cc(C(F)(F)F)ccn2)CC(F)(F)C1 [Example 125, (R)-{3,3-difluoro-1-[4-(trifluoromethyl)pyridin-2-yl]cyclobutyl}(pyridin-2-yl)methanol] | 5100 to 20000 nM | 53% | 8.8% | 
OC(c1ccccn1)C1(c2cccc(C(F)(F)F)n2)CCC1 (stereo not shown) [Example 234, pyridin-2-yl{1-[6-(trifluoromethyl)pyridin-2-yl]cyclobutyl}methanol] | 5100 to 20000 nM | 19% | 23% | 
OC(c1ccccn1)C1(c2ccc(Cl)c(C(F)(F)F)c2)CC(F)(F)C1 (stereo not shown) [Example 138, {1-[4-chloro-3-(trifluoromethyl)phenyl]-3,3-difluorocyclobutyl}(pyridin-2-yl)methanol] | 501 to 1000 nM | 41% | 18% | 
O[C@H](c1ccccn1)[C@]1(c2ccc(Cl)c(Cl)c2)CCO1 [Example 136, (R)-[(2R)-2-(3,4-dichlorophenyl)oxetan-2-yl](pyridin-2-yl)methanol] | 50 to 500 nM | 24% | 9.5% | 
OC(c1ccccn1)C1(C2CCC(F)(F)CC2)CCC1 (stereo not shown) [Example 274, [1-(4,4-difluorocyclohexyl)cyclobutyl](pyridin-2-yl)methanol] | 1100 to 5000 nM | 55% | 10% | 
CC1(O)CC(c2cccc(OC(F)(F)F)c2)(C(O)c2ccccn2)C1 [Example 263, trans-3-[(S)-hydroxy(pyridin-2-yl)methyl]-1-methyl-3-[3-(trifluoromethoxy)-phenyl]cyclobutanol] | 1100 to 5000 nM |  | >85% | 
OC(c1ncccn1)C1(c2cccc(OC(F)(F)F)c2)CCC1 (stereo not shown) [Example 37, pyrimidin-2-yl{1-[3-(trifluoromethoxy)phenyl]cyclobutyl}methanol] | 501 to 1000 nM |  | 7.7% | 
CCN(CC)c1ccc(C2(C(O)c3ccccn3)CCC2)cc1 (stereo not shown) [Example 18, {1-[4-(diethylamino)phenyl]cyclobutyl}(pyridin-2-yl)methanol] | 501 to 1000 nM |  | 0.27% | 
NC1CCCC1C(O)C1(c2cccc(OC(F)(F)F)c2)CCC1 (stereo not shown) [Example 208, (2-aminocyclopentyl){1-[3-(trifluoromethoxy)phenyl]cyclobutyl}methanol] | 1100 to 5000 nM |  | 36% | 
CC(c1cccc(C(F)(F)F)c1)C1(C(O)c2ccccn2)CCC1 (stereo not shown) [Example 54, pyridin-2-yl(1-{1-[3-(trifluoromethyl)phenyl]ethyl}cyclobutyl)methanol] | > 20000 nM |  | 0.21% | 
NC1CCCC1C(O)C1(c2ccccc2OC(F)(F)F)CCC1 (stereo not shown) [Example 214, (2-aminocyclopentyl){1-[2-(trifluoromethoxy)phenyl]cyclobutyl}methanol] | 1100 to 5000 nM |  |  | 
CC1(O)CC(c2cncc(C(F)(F)F)c2)([C@H](O)c2ccccn2)C1 (stereo in doubt) [Example 309, trans-3-[(S)-hydroxy(pyridin-2-yl)methyl]-1-methyl-3-[5-(trifluoromethyl)-pyridin-3-yl]cyclobutanol] | 1100 to 5000 nM |  |  | >85%
OC(CC1(c2cccc(Cl)c2)CCC1)c1ccccn1 (stereo not shown) [Example 72, 2-[1-(3-chlorophenyl)cyclobutyl]-1-(pyridin-2-yl)ethanol] | 1100 to 5000 nM |  |  | 
OC(c1ccccn1)C1(c2ccc(Cl)cc2)CCOCC1 (stereo not shown) [Example 64, [4-(4-chlorophenyl)tetrahydro-2H-pyran-4-yl](pyridin-2-yl)methanol] | 1100 to 5000 nM |  |  | 
NC1CCCCC1C(O)C1(c2ccc(OC(F)(F)F)cc2)CCC1 (stereo not shown) [Example 209, (2-aminocyclohexyl){1-[4-(trifluoromethoxy)phenyl]cyclobutyl}methanol] | 1100 to 5000 nM |  |  | 
NC1CCCCC1C(O)C1(c2ccc(Cl)c(Cl)c2)CCC1 (stereo not shown) [Example 211, (2-aminocyclohexyl) [1-(3,4-dichlorophenyl)cyclobutyl]methanol] | 5100 to 20000 nM |  |  | 
CC(c1ccccc1)C1(C(O)c2ccccn2)CCC1 (stereo not shown) [Example 51, [1-(1-phenylethyl)cyclobutyl](pyridin-2-yl)methanol] | 5100 to 20000 nM |  |  | 
NC1CCCCC1C(O)C1(c2cccc(OC(F)(F)F)c2)CCC1 (stereo not shown) [Example 210, (2-aminocyclohexyl){1-[3-(trifluoromethoxy)phenyl]cyclobutyl}methanol] | 1100 to 5000 nM |  |  | 
OC(c1ncccn1)C1(c2ccc(F)c(F)c2)CCC1 (stereo not shown) [Example 35, [1-(3,4-difluorophenyl)cyclobutyl](pyrimidin-2-yl)methanol] | 5100 to 20000 nM |  |  | 
OC(c1ccccn1)C1(c2ccc(C(F)(F)F)cc2)CCOCC1 (stereo not shown) [Example 65, pyridin-2-yl{4-[4-(trifluoromethyl)phenyl]tetrahydro-2H-pyran-4-yl}-methanol] | 1100 to 5000 nM |  |  | 
CC(c1cccc(F)c1)C1(C(O)c2ccccn2)CCC1 (stereo not shown) [Example 47, {1-[1-(3-fluorophenyl)ethyl]cyclobutyl}(pyridin-2-yl)methanol] | 1100 to 5000 nM |  |  | 
OC(CC1(c2cccc(F)c2)CCC1)c1ccccn1 (stereo not shown) [Example 71, 2-[1-(3-fluorophenyl)cyclobutyl]-1-(pyridin-2-yl)ethanol] | 1100 to 5000 nM |  |  | 
